Measurements as given in paper PMC10065799, “High-throughput profiling of sequence recognition by tyrosine kinases and SH2 domains using bacterial peptide display” (eLife, 2023).

Tests used:
Assay in all cases: pTyr-Var library bacterial peptide display kinase screen (enrichment scores)
c-Abl kinase domain = target: T1, c-Abl kinase domain (Mus musculus, UniProt P00520); assay type: biochemical;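 note: log2 fold change in enrichment of variant over reference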
T1 sequence (P00520 242-493 limits assumed): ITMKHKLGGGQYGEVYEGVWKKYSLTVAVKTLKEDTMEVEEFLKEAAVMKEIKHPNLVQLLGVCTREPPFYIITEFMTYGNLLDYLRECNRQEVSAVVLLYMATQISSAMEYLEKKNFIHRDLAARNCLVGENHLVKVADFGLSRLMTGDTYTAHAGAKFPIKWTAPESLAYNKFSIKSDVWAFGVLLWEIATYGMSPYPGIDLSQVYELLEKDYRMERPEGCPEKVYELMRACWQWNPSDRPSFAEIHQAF

c-Src kinase domain = c-Src kinase domain (Homo sapiens, UniProt P12931); assay type: biochemical; details: sheet "Src";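 note: log2 fold change in enrichment of variant over reference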
EPHB1 kinase domain = assay type: biochemical, human; details: for Screen: sheet EPHB1, effect of the variant peptide relative to its reference peptide in the pTyr-Var library screen (enrichment scores); for Screen (variant relative to reference peptide, measured in the pTyr-Var library screen): sheet "EPHB1", variant seq vs reference seq, bacterial peptide display enrichment
EPHB2 kinase domain = assay type: biochemical, human; details: sheet EPHB2; effect of variant peptide relative to its reference peptide in the pTyr-Var library screen (enrichment scores)
Fer kinase domain = assay type: biochemical, mouse; details: sheet "Fer"
[1] = fig5-data2, sheet "Abl", Screen for the variant/reference peptide pair, pTyr-Var library
[2] = effect of the variant peptide relative to its reference peptide in the pTyr-Var library screen
[3] = sheet "Abl", effect of variant peptide relative to its reference peptide in pTyr-Var library screen (enrichment)
[4] = variant peptide versus its reference peptide in the pTyr-Var library screen
[5] = value of the variant peptide against its reference peptide in the pTyr-Var library screen with Fer

## LEIETYRRLRD [KRT12_Y429_L433R]
c-Abl kinase domain; [1]
  Screen: 0.7498

## LERFIYNPEEF [HLA-DPB1_Y59_R61P_YF]
c-Src kinase domain; [2]
  Screen: 0.2405

## LFEDRYLLGPS [ASS1_Y87_T91P_YF]
EPHB1 kinase domain
  Screen: -1.226
EPHB2 kinase domain
  Screen: -0.4556

## LKLKAYRFSIS [LCT_Y974_V971L]
c-Src kinase domain; [2]
  Screen: 1.678

## LLTALYFISWG [KCNH2_Y780_R784W]
c-Src kinase domain; [2]
  Screen: 0.3693

## LMFPDYLPCSV [SAG_Y129_T125M]
c-Abl kinase domain; [3]
  Screen: 0.9994

## LMQAEYWHDPI [PPT1_Y185_V181M]
c-Abl kinase domain; [1]
  Screen: 0.6191

## LNCDRYSAGLL [PDE6A_Y275_V277A]
EPHB2 kinase domain
  Screen: -1.197

## LPVHFYSHVEH [PYGM_Y204_G205S]
Fer kinase domain; variant peptide relative to its reference peptide, pTyr-Var library screen enrichment
  Screen: -0.5676

## LSEEKYELKEG [TREM1_Y29_T25S]
c-Abl kinase domain; [3]
  Screen: -1.268

## LVIIKYLPEWT [PSEN1_Y240_F237I]
EPHB1 kinase domain
  Screen: 1.338
EPHB2 kinase domain
  Screen: 1.457

## LWQTIYNLEAE [TNNT2_Y251_S249T]
c-Src kinase domain; [4]
  Screen: 0.4505

## MSGDVYSTDFF [NTRK2_Y702_R699G_YF]
c-Src kinase domain; [4]
  Screen: 0.7528

## NDENIYKGLPD [VAV3_Y141_D139N]
c-Src kinase domain; [4]
  Screen: 1.088

## NFFDLYGGEKF [PTPN11_Y66_D61N_YF]
c-Src kinase domain; [4]
  Screen: -0.03521

## NNFGNYNNQSS [HNRNPA1_Y318_D314N]
c-Abl kinase domain; [1]
  Screen: 1.57

## PDSVDYPKKGF [CTSK_Y121_R122P_YF]
c-Src kinase domain; [2]
  Screen: 2.065
c-Abl kinase domain; [1]
  Screen: -1.054
Fer kinase domain; [5]
  Screen: 0.978

## PLDAEYFTLQI [TP53_Y327_G325A]
c-Src kinase domain; [4]
  Screen: 0.1358

## PLQHVYKIGGI [EEF1A2_Y254_D252H]
c-Src kinase domain; [2]
  Screen: -2.182
EPHB1 kinase domain
  Screen: -0.7167

## PLRAFYLIARV [HLCS_Y635_D634Y_YF]
c-Src kinase domain; [2]
  Screen: 1.953

## PNRILYGDFWQ [MYH6_Y717_R721W]
c-Src kinase domain; [2]
  Screen: -0.3786

## PQAVTYATVKH [LILRB4_Y360_K362T]
c-Src kinase domain; [2]
  Screen: 2.009

## QHVPDYRQNGF [PCDHGA10_Y895_V899G_YF]
c-Abl kinase domain; [1]
  Screen: 0.583

## QQLQGYVPSNF [FRK_Y99_I100V_YF]
c-Abl kinase domain; [1]
  Screen: 0.6322

## QRPFVYFFSFL [PTEN_Y176_R173P_YF]
Fer kinase domain; [5]
  Screen: -0.4962

## REVPVYTFSEP [FAM120B_Y368_D370Y_YF]
c-Src kinase domain; [2]
  Screen: 3.398
Fer kinase domain; [5]
  Screen: 3.619
EPHB1 kinase domain
  Screen: 0.7576

## RGKDNYETSQL [SPP1_Y225_S224N]
c-Abl kinase domain; [3]
  Screen: 0.8642

## RHPEVYHHLGI [NVL_Y290_V295I]
EPHB1 kinase domain
  Screen: 0.1225

## RLDGEYFTLQI [TP53_Y327_P322R]
c-Src kinase domain; [4]
  Screen: -0.8354
c-Abl kinase domain; [3]
  Screen: 0.2276

## RLLRGYNQSAF [HLA-C_Y137_D138N_YF]
c-Abl kinase domain; [1]
  Screen: 1.149

## RQNQEYEILMD [KRT39_Y379_L383M]
EPHB1 kinase domain
  Screen: 0.4118
EPHB2 kinase domain
  Screen: 0.3975

## RRIHRYRGHLW [VHL_Y112_S111R]
c-Src kinase domain; [4]
  Screen: -2.928
EPHB1 kinase domain
  Screen (variant relative to reference peptide, measured in the pTyr-Var library screen): -1.747

## RRIHSYRCHLW [VHL_Y112_G114C]
c-Src kinase domain; [4]
  Screen: -2.304
EPHB1 kinase domain
  Screen (variant relative to reference peptide, measured in the pTyr-Var library screen): -1.413

## RRIHSYRGHVW [VHL_Y112_L116V]
c-Src kinase domain; [4]
  Screen: -1.808
EPHB1 kinase domain
  Screen (variant relative to reference peptide, measured in the pTyr-Var library screen): -1.04

## RRNEEYCLLAS [ITK_Y198_D202A]
EPHB1 kinase domain
  Screen: -0.2034

## SARVRYLMAEK [LDHB_Y173_F171V]
c-Abl kinase domain; [1]
  Screen: 1.358

## SILTVYSKDNF [PANK2_Y400_A398T_YF]
c-Src kinase domain; [4]
  Screen: -1.709

## SPPEVYAIMRG [NTRK1_Y757_C752S]
c-Src kinase domain; [4]
  Screen: 0.1672

## STLEVYRCHPP [IL21R_Y317_S318R]
c-Src kinase domain; [2]
  Screen: -1.75

## SVTCTYSLALN [TP53_Y126_P128L]
c-Src kinase domain; [4]
  Screen: 1.349

## TDIVAYSGWVQ [SPTBN2_Y477_R480W]
EPHB2 kinase domain
  Screen: -2.35

## TDTAAYEERLR [SPTB_Y474_V478L]
c-Abl kinase domain; [3]
  Screen: -0.2404

## TGNPAYRSFSN [IL4R_Y497_A492T]
c-Abl kinase domain; [1]
  Screen: 1.02

## TLPAFYMENFS [GLB1_Y552_G554E]
c-Abl kinase domain; [1]
  Screen: 0.2401

## TSQSQYSSFRE [CCDC170_Y323_F324S]
c-Src kinase domain; [2]
  Screen: -1.483
c-Abl kinase domain; [1]
  Screen: 2.786

## TTGGFYSFGGG [KRT24_Y120_A115T_YF]
c-Src kinase domain; [2]
  Screen: -0.1401
Fer kinase domain; [5]
  Screen: -0.6603

## TTPAVYARVTK [CTRB2_Y246_A250T]
c-Src kinase domain; [2]
  Screen: 0.6652

## VDSAHYQLLET [DTX3L_Y385_K386Q]
Fer kinase domain; [5]
  Screen: 3.227

## VIKDKYPKAHF [APTX_Y209_R213H_YF]
c-Abl kinase domain; [1]
  Screen: 0.3442

## VKPENYRRLDV [VHL_Y175_I180V]
c-Abl kinase domain; [3]
  Screen: -5.31

## VRFVDYVLFRS [FAM189B_Y361_S358F]
EPHB1 kinase domain
  Screen: 1.362

## WDLTDYLMKIL [ACTB_Y188_R183W]
c-Abl kinase domain; [1]
  Screen: 1.288
